# In patent US20060135569A1, “Use of benzisoselenazolone compounds against ischemic myocardial damage” (priority 2002, published 2006):
# Marks after values point to notes of the source that are not given here.
# How the values were obtained:
# [1] = molecular target: T1, Na^+/Ca^2+ exchanger (Cavia porcellus, UniProt P48766); assay: Na^+/Ca^2+ exchange current (INa—Ca), whole-cell patch clamp, intracellular Na^+ overload cell model; assay type: cell-based, guinea pig; design: Inhibitory rate of outward INa—Ca (%) / Inhibitory rate of inward INa—Ca (%): concentration or dose not given beside the values; settings: for inhibitory ratio on INa—Ca at −80 mV: inward current; for inhibitory ratio on INa—Ca at +50 mV: outward current; for selectivity of inhibition of outward versus inward INa—Ca: biphasic ion conditioning; for effective concentration (significant inhibitory effect on reverse mode Na^+/Ca^2+ exchange): intracellular Na^+ overload
# T1 construct: endogenous in cells; host or cells: freshly isolated guinea pig ventricular myocytes
# From the text: 1. Establishment of Assaying Method for Biphasical Current Detection in Na^+/Ca^2+ Exchange System
# Since the reverse mode of Na^+/Ca^2+ exchange process is one of the main mechanisms involving in ischemia/reperfusion insult, it is of great importance to establish cell model represented reverse mode Na^+/Ca^2+ exchange process for the development of drugs against ischemic injury. Therefore, we successfully established cell model of reverse mode Na^+/Ca^2+ exchange system by intracellular Na^+ dialysis technique, and recorded Na^+/Ca^2+ exchange currents by patch clamp experiment.
# Internal solution contained certain concentration of NaCl was filled to the microcatheter, and ion exchange process between the cellular and internal solutions was conducted after whole cell currents were recorded by patch clamp. Na^+ contained in the internal solution was dialyzed into the cell; result in the high intracellular Na^+ concentration. After that, the cell was champed at a holding potential of −40 mV, then depolarized to +60 mV and followed by a conversely declining ramp stimuli at a speed of 80 mV·s^−1 and 2 s conditioning pulse, then repolarized to −100 mV with a frequency of 0.05 Hz. Under the stimulation protocol, current from outward to the inward direction was recorded by perfusing modified biphasical Tyrode solution (in which the outward and inward currents can be recorded simultaneously) with the addition of 1 mmol·L^−1 of BaCl2 and 2 mmol·L^−1 of CsCl to block K^+ channels, 1 μmol·L^−1 of verapamil to block L-type Ca^2+ channels, and 20 μmol·L^−1 of ouabain to block Na^+/K^+ ATPase, and 20 mmol·L^−1 of TEA to block potassium channels. The recorded inward currents were presented in a linear manner owing to the blockade of other time-dependent currents. With the increase of intracellular Na^+ level and prolongation of time, the reverse mode of Na^+/Ca^2+ exchange process was activated. […] Under such experimental conditioning, the maximum reverse mode current was recorded 3 min after cell crushed. No significant “run-down” was observed within the record period of 8 minutes. The inward and outward current were inhibited by 5 mmol·L^−1 of Ni^2+ treatment, and the experiment result in two current-voltage curves in the absence or presence of Ni^2+. The Ni^2+ sensitive current, also called electrophysiological Na^+/Ca^2+ exchange current (INa·Ca), was the minus result of two current-voltage curves. The reverse mode potential of INa—Ca was about −20 mV
# Male guinea pigs weighting 250˜280 g provided by the Animal Center of the Chinese Academy of Medical Sciences were hammered and sacrificed. The chest was opened and the heart was removed quickly. Fatty tissue and pericardium were removed in a Ca^2+-free solution at 4° C., and heart was sequentially mounted on a Langendorff apparatus. First, the heart was perfused conversely via the aorta for 6 min with Ca^2+-free solution in order to wash out residual blood, then the heart expands and the color of it turns to pink. Then the heart was perfused with Ca^2+-free solution containing 0.1 mg/ml of pronase E, 0.5 mg/ml defatted bovine serum albumin (BSA) and 150 μM Ca^2+ for 2˜3 min, until the heart expanded and became soft. The atrium was removed, and the digested heart was minced with scissors, stirred in a beaker at 37° C. for 5˜10 min. The supernatant was diluted with Ca^2+-free solution containing 0.5 mg/ml BSA and 1.8 mM Ca^2+. The supernatant was placed at room temperature (20˜24° C.) for 1 hr and then subjected to the experiment. During the whole perfusion period, pressure was kept at 70 cmH2O and the temperature of solution was kept at 37° C. with continuously gassed with 95% O2 and 5% CO2.
# Rod-shaped cells with clear striations and intact membrane were used. […]
# [2] = tested on: arrhythmia caused by ischemia/reperfusion insults in anaesthetic rats; assay: Ischemia/reperfusion arrhythmia in anaesthetic rats, intravenous injection; assay type: in vivo, rat; settings: rats
# From the text: (1) Protective Effects of the Tested Compounds on Myocardial Insults in Rats after Intravenously Injection
# Arrhythmic potency induced by myocardial insults was used to assess the potential protective effect of the compounds.
# [3] = tested on: isolated rat hearts subjected to ischemia-reperfusion (I/R); assay: Isolated heart subjected to ischemia/reperfusion injury (arrhythmia); settings: 10^−6 M; isolated heart ischemia/reperfusion
# Protocol: Based on the pre-electrophysiological cell model screening, we have compared the inhibition ratios of the outward current by reverse-transportation of Na^+/Ca^2+ exchange, and further in vitro tests on isolated rat hearts subjected to ischemia-reperfusion (I/R) were conducted. Prolongation of ventricular arrhythmic, incidence rate of ventricular extrasystole, ventricular tachycardia/ventricular fibrillation (VT/VF) were recorded to evaluate the protective actions of drugs on myocardial injury.
# On the basis of above screening results obtained from electrophysiological studies, and the result from comparative study on the research of the inhibitory effect of compounds on reverse mode Na^+/Ca^2+ exchange process, 7 effective compounds were subjected to in vitro study. Among which, IMM-313, IMM-004 and IMM-132 have structures containing chlorine; IMM-127, IMM-128 and IMM-129 have structures containing fluorine; and IMM-065 has a structure containing OH. The experiment performed in the isolated heart subjected to ischemia/reprefusion insult. Prolongation of ventricular arrhythmic, incidence of ventricular extrasystole, ventricular tachycardia/ventricular fibrillation (VT/VF) were recorded in order to evaluate the protective actions of drugs on myocardial injury.
# [4] = Example 1 table, myocardial cell
# [5] = screening of 22 candidate compounds
# [6] = 0.3 mg/Kg intravenous (femoral vein)
smiles,measurement,setting,value
"N=C(N)SCCc1ccc(OCc2ccc([N+](=O)[O-])cc2)cc1 [KB-R7943, 2-[2-[4-(4-nitrobenzyloxy)phenyl]]isothiourea, reference compound]",inhibitory ratio on INa—Ca at −80 mV,[1]; 1 μM,22%
same,inhibitory ratio on INa—Ca at +50 mV,[1]; 1 μM,29%
same,inhibitory ratio on INa—Ca at −80 mV,[1]; 10 μM,57%
same,inhibitory ratio on INa—Ca at +50 mV,[1]; 10 μM,61%
same,selectivity of inhibition of outward versus inward INa—Ca,[1],without selectivity
same,selectivity of inhibition of outward versus inward INa—Ca,[1]; listed as KB-R794,poor selectivity
"O=c1c2ccccc2[se]n1-c1ccncc1 [IMM-001, 2-(4-pyridyl)-1,2-benzisoselenazol-3(2H)-one]",inhibitory ratio on INa—Ca at −80 mV,[1]; 0.1 μM,15%
same,inhibitory ratio on INa—Ca at +50 mV,[1]; 0.1 μM,28%
same,inhibitory ratio on INa—Ca at −80 mV,[1]; 1 μM,24%
same,inhibitory ratio on INa—Ca at +50 mV,[1]; 1 μM,48%
same,inhibitory ratio on INa—Ca at −80 mV,[1]; 10 μM,42%
same,inhibitory ratio on INa—Ca at +50 mV,[1]; 10 μM,66%
same,selectivity of inhibition of outward versus inward INa—Ca,[1],high selectivity
same,effective concentration (significant inhibitory effect on reverse mode Na^+/Ca^2+ exchange),[1],10^−7 to 10^−5 mol·L^−1
same,"incidence and duration of VT, VF, VE / ventricular arrhythmic",[2]; 3 mg/Kg intravenous (femoral vein),all reduced
"O=c1c2cc(F)ccc2[se]n1-c1ccncc1 [IMM-129, 5-fluoro-2-(4-pyridyl)-1,2-benz-isoselenazol-3(2H)-one]",Inhibitory rate of inward INa—Ca (%),[1]; [4],57%
same,Inhibitory rate of outward INa—Ca (%),[1]; [4],59%
same,Inhibitory rate of inward INa—Ca (%),[1]; [5],57* %
same,Inhibitory rate of outward INa—Ca (%),[1]; [5],59* %
same,"AAT: arrhythmic occurrence time, Time",[3],23.67 ± 3.87 min
same,VF (ventricular fibrillation) Incidence rate (%),[3],63%
same,VPS (ventricular premature beats) Incidence rate (%),[3],37.5%
same,VT (ventricular tachycardia) Incidence rate (%),[3],75%
"O=c1c2cc(F)ccc2[se]n1-c1ccccc1 [IMM-130, 5-fluoro-2-phenyl-1,2-benz-isoselenazol-3(2H)-one]",Inhibitory rate of inward INa—Ca (%),[1]; [5],43%
same,Inhibitory rate of outward INa—Ca (%),[1]; [5],30%
"O=c1c2ccccc2[se]n1-c1cccc2cccnc12 [IMM-003, 2-(8-quinolinyl)-1,2-benz-isoselenazol-3(2H)-one]",Inhibitory rate of outward INa—Ca (%),[1]; [5],22%
"O=c1c2ccccc2[se]n1/C=C/C1N=CCN1 (stereo not drawn) [IMM-002, 2-[(3,4-dihydroimidazol-2-yl)-2-ethenyl]-1,2-benz-isoselenazol-3(2H)-one]",Inhibitory rate of inward INa—Ca (%),[1]; [5],34%
same,Inhibitory rate of outward INa—Ca (%),[1]; [5],32* %
"O=c1c2cc(O)ccc2[se]n1-c1ccccn1 [IMM-163, 5-hydroxy-2-(2pyridyl)-1,2-benz-isoselenazol-3(2H)-one]",Inhibitory rate of inward INa—Ca (%),[1]; [5],19%
same,Inhibitory rate of outward INa—Ca (%),[1]; [5],14%
"O=c1c2cc(Cl)ccc2[se]n1-c1ccccc1 [IMM-131, 5-chloro-2-phenyl-1,2-benz-isoselenazol-3(2H)-one]",Inhibitory rate of inward INa—Ca (%),[1]; [5],15%
same,Inhibitory rate of outward INa—Ca (%),[1]; [5],22%
"N=C(N)NC(=O)c1nc(Cl)c(N)nc1N [Amiloride, reference compound]",inhibitory ratio on INa—Ca at −80 mV,[1]; 10 μM,6%
same,inhibitory ratio on INa—Ca at +50 mV,[1]; 10 μM,15%
same,inhibitory ratio on INa—Ca at −80 mV,[1]; 30 μM,15%
same,inhibitory ratio on INa—Ca at +50 mV,[1]; 30 μM,23%
same,inhibitory ratio on INa—Ca at −80 mV,[1]; 100 μM,23%
same,inhibitory ratio on INa—Ca at +50 mV,[1]; 100 μM,41%
same,effective concentration (significant inhibitory effect on reverse mode Na^+/Ca^2+ exchange),[1],above 10^−5 mol·L^−1
"O=c1c2ccc(Cl)cc2[se]n1-c1ccccn1 [IMM-142, 6-chloro-2-(2-pyridyl)-1,2-benz-isoselenazol-3(2H)-one]",Inhibitory rate of inward INa—Ca (%),[1]; [5],57%
same,Inhibitory rate of outward INa—Ca (%),[1]; [5],46%
"O=c1c2ccccc2[se]n1-c1cccnc1 [IMM-030, 2-(3-pyridyl)-1,2-benzisoselenazol-3(2H)-one]",Inhibitory rate of inward INa—Ca (%),[1]; [5],17%
same,Inhibitory rate of outward INa—Ca (%),[1]; [5],12%
"O=c1c2cc(O)ccc2[se]n1-c1ccccc1 [IMM-164, 5-hydroxy-2-phenyl-1,2-benz-isoselenazol-3(2H)-one]",Inhibitory rate of inward INa—Ca (%),[1]; [5],22%
same,Inhibitory rate of outward INa—Ca (%),[1]; [5],8%
"O=c1c2ccc(Cl)cc2[se]n1-c1cccnc1 [IMM-141, 6-chloro-2-(3-pyridyl)-1,2-benz-isoselenazol-3(2H)-one]",Inhibitory rate of inward INa—Ca (%),[1]; [5],2%
"O=c1c2ccccc2[se]n1Cc1ccccn1 [IMM-058, 2-(2-pyridylmethyl)-1,2-benz-isoselenazol-3(2H)-one]",Inhibitory rate of outward INa—Ca (%),[1]; [5],3%
"COc1ccc(CCN(C)CCCC(C#N)(c2ccc(OC)c(OC)c2)C(C)C)cc1OC (stereo not drawn) [Verapamil, reference compound]","incidence of VT, VF, VE and duration of arrhythmic",[2]; [6],all reduced
same,latency of ventricular arrhythmic,[2]; [6],significantly prolonged
"O=c1c2ccccc2[se]n1Cc1ccco1 [IMM-059, 2-(2-furanylmethyl)-1,2-benz-isoselenazol-3(2H)-one]",Inhibitory rate of inward INa—Ca (%),[1]; [5],15%
same,Inhibitory rate of outward INa—Ca (%),[1]; [5],8%
"O=c1c2cc(Cl)ccc2[se]n1-c1cccnc1 [IMM-125, 5-chloro-2-(3-pyridyl)-1,2-benz-isoselenazol-3(2H)-one]",Inhibitory rate of inward INa—Ca (%),[1]; [5],14%
same,Inhibitory rate of outward INa—Ca (%),[1]; [5],35%
"O=c1c2cc(Cl)ccc2[se]n1-c1ccncc1 [IMM-132, 5-chloro-2-(4-pyridyl)-1,2-benz-isoselenazol-3(2H)-one]",Inhibitory rate of inward INa—Ca (%),[1]; [4],14%
same,Inhibitory rate of outward INa—Ca (%),[1]; [4],44%
same,Inhibitory rate of inward INa—Ca (%),[1]; [5],14%
same,Inhibitory rate of outward INa—Ca (%),[1]; [5],44* %
same,"AAT: arrhythmic occurrence time, Time",[3],29.13 ± 0.69 min
same,VF (ventricular fibrillation) Incidence rate (%),[3],85.7%
same,VPS (ventricular premature beats) Incidence rate (%),[3],28.6%
same,VT (ventricular tachycardia) Incidence rate (%),[3],85.7%
"CCCCC1OC(=O)c2cccc(-n3[se]c4ccccc4c3=O)c21 (stereo not drawn) [IMM-623, 2-[4-(7-n-butyl-benzo(1,2-c-di-hydrofuran-2-one))]-1,2-benz-isoselenazol-3(2H)-one]",Inhibitory rate of inward INa—Ca (%),[1]; [5],15%
same,Inhibitory rate of outward INa—Ca (%),[1]; [5],11%
